Patent publication US9914730B2, “Azaquinazoline inhibitors of Atypical protein Kinase C” (Ignyta, Inc., priority 2012, dated 2018)

target: T1, full-length human PKCι (Homo sapiens, UniProt P41743); experiment: PKCι IC50 IMAP assay, full-length PKCι at 150 μM ATP; assay type: biochemical; details: read-out: IC50 in IMAP assay against full length PKCi at 150 μM ATP
T1 construct: Recombinant, full-length human PKCι expressed in Sf21 insect cells is also commercially available; purchased; host or cells: Sf21 insect cells
T1 sequence (P41743 1-596): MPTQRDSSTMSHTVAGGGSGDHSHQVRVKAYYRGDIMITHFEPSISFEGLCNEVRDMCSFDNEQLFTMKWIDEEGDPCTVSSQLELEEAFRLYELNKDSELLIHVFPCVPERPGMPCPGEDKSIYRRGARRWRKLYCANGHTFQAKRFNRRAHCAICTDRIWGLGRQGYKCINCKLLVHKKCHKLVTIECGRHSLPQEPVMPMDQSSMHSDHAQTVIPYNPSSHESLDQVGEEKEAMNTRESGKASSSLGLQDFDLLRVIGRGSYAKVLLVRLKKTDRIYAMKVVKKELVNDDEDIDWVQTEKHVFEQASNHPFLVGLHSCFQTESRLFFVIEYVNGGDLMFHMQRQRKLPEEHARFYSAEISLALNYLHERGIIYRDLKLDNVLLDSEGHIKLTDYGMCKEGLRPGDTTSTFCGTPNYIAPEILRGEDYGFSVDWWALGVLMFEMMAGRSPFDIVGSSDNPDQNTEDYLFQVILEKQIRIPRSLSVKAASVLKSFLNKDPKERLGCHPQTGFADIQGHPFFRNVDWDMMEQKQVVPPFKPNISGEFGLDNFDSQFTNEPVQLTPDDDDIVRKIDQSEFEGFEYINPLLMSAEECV
Procedure, shortened: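 Full-length human PKCι from Sf21 cells, typically 15 pM, with 100 nM 5FAM-PKCε pseudosubstrate peptide and 150 μM ATP (5× apparent KM), 60 min at room temperature, 4% DMSO. IMAP fluorescence polarisation read-out; inhibition normalised to no-compound and no-enzyme controls, IC50 from curve fit.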

IC50 [µM]	Compound
< 0.1	Fc1cc(C2CC2)cc(F)c1Nc1cc(-c2nc(N3CCNCC3)c3c(C4CC4)cncc3n2)ccn1 [Example 603, (4-Cyclopropyl-2,6-difluoro-phenyl)-[4-(5-cyclopropyl-4-piperazin-1-yl-pyrido[3,4-d]pyrimidin-2-yl)-pyridin-2-yl]-amine]
< 0.1	Cc1cc(F)c(Nc2cc(-c3nc(N4CCNCC4)c4c(C5CC5)cncc4n3)ccn2)c(F)c1 [Example 604, [4-(5-Cyclopropyl-4-piperazin-1-yl-pyrido[3,4-d]pyrimidin-2-yl)-pyridin-2-yl]-(2,6-difluoro-4-methyl-phenyl)-amine]
< 0.1	Cn1cnc(Nc2cc(-c3nc(N4CCNCC4)c4c(C5CC5)cncc4n3)ccn2)c1 [Example 605, [4-(5-Cyclopropyl-4-piperazin-1-yl-pyrido[3,4-d]pyrimidin-2-yl)-pyridin-2-yl]-(1-methyl-1H-imidazol-4-yl)-amine]
0.1 to 1	OCCN1CCN(c2nc(-c3ccnc(Nc4ccccc4)c3)nc3cncc(C4CC4)c23)CC1 [Example 606, 2-{4-[5-Cyclopropyl-2-(2-phenylamino-pyridin-4-yl)-pyrido[3,4-d]pyrimidin-4-yl]-piperazin-1-yl}-ethanol]
0.1 to 1	OC[C@@H](O)CN1CCN(c2nc(-c3ccnc(Nc4ccccc4)c3)nc3cncc(C4CC4)c23)CC1 [Example 607, (S)-3-{4-[5-Cyclopropyl-2-(2-phenylamino-pyridin-4-yl)-pyrido[3,4-d]pyrimidin-4-yl]-piperazin-1-yl}-propane-1,2-diol]
0.1 to 1	OC[C@H](O)CN1CCN(c2nc(-c3ccnc(Nc4ccccc4)c3)nc3cncc(C4CC4)c23)CC1 [Example 608, (R)-3-{4-[5-Cyclopropyl-2-(2-phenylamino-pyridin-4-yl)-pyrido[3,4-d]pyrimidin-4-yl]-piperazin-1-yl}-propane-1,2-diol]
< 0.1	COc1cc(Nc2cc(-c3nc(N4CCNCC4)c4c(C5CC5)cncc4n3)ccn2)ccc1C [Example 609, [4-(5-Cyclopropyl-4-piperazin-1-yl-pyrido[3,4-d]pyrimidin-2-yl)-pyridin-2-yl]-(3-methoxy-4-methyl-phenyl)-amine]
< 0.1	COc1ccc(Nc2cc(-c3nc(N4CCNCC4)c4c(C5CC5)cncc4n3)ccn2)cc1OC [Example 610, [4-(5-Cyclopropyl-4-piperazin-1-yl-pyrido[3,4-d]pyrimidin-2-yl)-pyridin-2-yl]-(3,4-dimethoxy-phenyl)-amine]
0.1 to 1	COc1cc(Nc2cc(-c3nc(N4CCNCC4)c4c(C5CC5)cncc4n3)ccn2)cc(OC)c1OC [Example 611, [4-(5-Cyclopropyl-4-piperazin-1-yl-pyrido[3,4-d]pyrimidin-2-yl)-pyridin-2-yl]-(3,4,5-trimethoxy-pheny)-amine]
< 0.1	O=C(Cc1ccccc1)Nc1cc(-c2nc(N3CCNCC3)c3c(C4CC4)cncc3n2)ccn1 [Example 612, N-[4-(5-Cyclopropyl-4-piperazin-1-yl-pyrido[3,4-d]pyrimidin-2-yl)-pyridin-2-yl]-2-phenyl-acetamide]
< 0.1	O=C(CC(F)(F)F)Nc1cc(-c2nc(N3CCNCC3)c3c(C4CC4)cncc3n2)ccn1 [Example 613, N-[4-(5-Cyclopropyl-4-piperazin-1-yl-pyrido[3,4-d]pyrimidin-2-yl)-pyridin-2-yl]-3,3,3-trifluoro-propionamide]
< 0.1	CN1CCP(=O)(c2ccc(Nc3cc(-c4nc(N5CCNCC5)c5c(C6CC6)cncc5n4)ccn3)cc2)CC1 [Example 614, [4-(5-Cyclopropyl-4-piperazin-1-yl-pyrido[3,4-d]pyrimidin-2-yl)-pyridin-2-yl]-[4-(1-methyl-4-oxo-4λ^5-[1,4]azaphos-phinan-4-yl)-phenyl]-amine]
0.1 to 1	FC(F)(F)CC1CN(c2nc(-c3ccnc(Cl)c3)nc3cncc(C4CC4)c23)CCN1 (stereo not drawn) [Example 615, 2-(2-Chloro-pyridin-4-yl)-5-cyclopropyl-4-[3-(2,2,2-trifluoro-ethyl)-piperazin-1-yl]-pyrido[3,4-d]pyrimidine]
< 0.1	Fc1cccc(Cl)c1Nc1cc(-c2nc(N3CCNCC3)c3c(C4CC4)cncc3n2)ccn1 [Example 616, (2-Chloro-6-fluoro-phenyl)-[4-(5-cyclopropyl-4-piperazin-1-yl-pyrido[3,4-d]pyrimidin-2-yl)-pyridin-2-yl]-amine]
< 0.1	Cc1ccc(Cl)c(Nc2cc(-c3nc(N4CCNCC4)c4c(C5CC5)cncc4n3)ccn2)c1F [Example 617, (6-Chloro-2-fluoro-3-methyl-phenyl)-[4-(5-cyclopropyl-4-piperazin-1-yl-pyrido[3,4-d]pyrimidin-2-yl)-pyridin-2-yl]-amine]
< 0.1	Fc1ccc(Cl)c(F)c1Nc1cc(-c2nc(N3CCNCC3)c3c(C4CC4)cncc3n2)ccn1 [Example 618, (3-Chloro-2,6-difluoro-phenyl)-[4-(5-cyclopropyl-4-piperazin-1-yl-pyrido[3,4-d]pyrimidin-2-yl)-pyridin-2-yl]-amine]
< 0.1	c1ccc(Nc2cc(-c3nc(N4CCNCC4)c4c(C5CCC5)cncc4n3)ccn2)cc1 [Example 619, [4-(5-Cyclobutyl-4-piperazin-1-yl-pyrido[3,4-d]pyrimidin-2-yl)-pyridin-2-yl]-phenyl-amine]
< 0.1	Fc1cccc(F)c1Nc1cc(-c2nc(N3CCNCC3)c3c(C4CCC4)cncc3n2)ccn1 [Example 620, [4-(5-Cyclobutyl-4-piperazin-1-yl-pyrido[3,4-d]pyrimidin-2-yl)-pyridin-2-yl]-(2,6-difluoro-phenyl)-amine]
< 0.1	FC1(F)CCC(Nc2cc(-c3nc(N4CCNCC4)c4c(C5CC5)cncc4n3)ccn2)C1 (stereo not drawn) [Example 621, [4-(5-Cyclopropyl-4-piperazin-1-yl-pyrido[3,4-d]pyrimidin-2-yl)-pyridin-2-yl]-(3,3-difluoro-cyclopentyl)-amine]
< 0.1	CC(C)c1cccc(Nc2cc(-c3nc(N4CCNCC4)c4c(C5CC5)cncc4n3)ccn2)c1 [Example 622, [4-(5-Cyclopropyl-4-piperazin-1-yl-pyrido[3,4-d]pyrimidin-2-yl)-pyridin-2-yl]-(3-isopropyl-phenyl)-amine]
< 0.1	CCc1cccc(Nc2cc(-c3nc(N4CCNCC4)c4c(C5CC5)cncc4n3)ccn2)c1 [Example 623, [4-(5-Cyclopropyl-4-piperazin-1-yl-pyrido[3,4-d]pyrimidin-2-yl)-pyridin-2-yl]-(3-ethyl-phenyl)-amine]
0.1 to 1	FC(F)(F)C1CN(c2nc(-c3ccnc(Cl)c3)nc3cncc(C4CC4)c23)CCN1 (stereo not drawn) [Example 624, 2-(2-Chloro-pyridin-4-yl)-5-cyclopropyl-4-(3-trifluoromethyl-piperazin-1-yl)-pyrido[3,4-d]pyrimidine]
0.1 to 1	CCN1CCP(=O)(c2ccc(Nc3cc(-c4nc(N5CCNCC5)c5c(C6CC6)cncc5n4)ccn3)c(OC)c2)CC1 [Example 625, [4-(5-Cyclopropyl-4-piperazin-1-yl-pyrido[3,4-d]pyrimidin-2-yl)-pyridin-2-yl]-[4-(1-ethyl-4-oxo-4λ^5-[1,4]azaphos-phinan-4-yl)-2-methoxy-phenyl]-amine]
< 0.1	CC(=O)Nc1cc(-c2nc(N3CCNC(CC(F)(F)F)C3)c3c(C4CC4)cncc3n2)ccn1 (stereo not drawn) [Example 626, N-(4-{5-Cyclopropyl-4-[3-(2,2,2-trifluoro-ethyl)-piperazin-1-yl]-pyrido[3,4-d]pyrimidin-2-yl}-pyridin-2-yl)-acetamide]
< 0.1	COc1cc(Nc2cc(-c3nc(N4CCNCC4)c4c(C5CC5)cncc4n3)ccn2)ccc1F [Example 627, [4-(5-Cyclopropyl-4-piperazin-1-yl-pyrido[3,4-d]pyrimidin-2-yl)-pyridin-2-yl]-(4-fluoro-3-methoxy-phenyl)-amine]
< 0.1	COc1cc(Nc2cc(-c3nc(N4CCNCC4)c4c(C5CC5)cncc4n3)ccn2)c(F)cc1F [Example 628, [4-(5-Cyclopropyl-4-piperazin-1-yl-pyrido[3,4-d]pyrimidin-2-yl)-pyridin-2-yl]-(2,4-difluoro-5-methoxy-phenyl)-amine]
< 0.1	c1cc(-c2nc(N3CCNCC3)c3c(C4CC4)cncc3n2)cc(NCC2CC2)n1 [Example 629, Cyclopropyl-methyl-[4-(5-cyclopropyl - 4-piperazin-1-yl-pyrido[3,4-d]pyrimidin-2-yl)-pyridin-2-yl]-amine]
< 0.1	CNc1cc(-c2nc(N3CCNCC3)c3c(C4CC4)cncc3n2)ccn1 [Example 630, [4-(5-Cyclopropyl-4-piperazin-1-yl-pyrido[3,4-d]pyrimidin-2-yl)-pyridin-2-yl]-methyl-amine]
0.1 to 1	N#Cc1ccc(Nc2cc(-c3nc(N4CCNCC4)c4c(C5CC5)cncc4n3)ccn2)cc1F [Example 631, 4-[4-(5-Cyclopropyl-4-piperazin-1-yl-pyrido[3,4-d]pyrimidin-2-yl)-pyridin-2-ylamino]-2-fluoro-benzonitrile]
< 0.1	c1ccc(Nc2cc(-c3nc(N4CCCNCC4)c4c(C5CC5)cncc4n3)ccn2)cc1 [Example 632, [4-(5-Cyclopropyl-4-[1,4]diazepan-1-yl-pyrido[3,4-d]pyrimidin-2-yl)-pyridin-2-yl]-phenyl-amine]
